The target in test [1] is 5-HT2A receptor (Homo sapiens, UniProt P28223). The test is described as follows: Calcium mobilization (Fluo-8) assay in CHO-K1 cells stably expressing 5-HT2A (+5-HT2A). The class given is cell-based. On the procedure:
Briefly, vials with cells were removed from the liquid nitrogen and thawed quickly in 37° C. water bath.

The test system of test [2] is CHO-K1/Galpha15 cells (−5-HT2A). The test is described as follows: Calcium mobilization (Fluo-8) assay in control cells lacking 5-HT2A (−5-HT2A). The class given is cell-based, Chinese Hamster. To be noted: CHO-K1/Galpha15 control cells lacking 5-HT2A. The text has this: Cell lines for pharmacology assays. CHO-K1/Galpha15 (GenScript, M00257) (−5-HT2A) and CHO-K1/5-HT2A (GenScript, M00250) (+5-HT2A) cells lines were used in both toxicology/growth inhibition (MTT) and calcium release assays. Briefly, CHO-K1/Galpha15 is a control cell line that constitutively expresses Galpha15 which is a promiscuous Gq protein. It is engineered as a host cell, allowing transfected receptor(s) to signal through the Gq signal transduction pathway and mobilize intracellular calcium from the endoplasmic reticulum (ER). These control cells lack any transgene encoding 5-HT2A receptors, thus preventing calcium mobilization in response to 5-HT2A activation. Conversely, CHO-K1/5-HT2A cells stably express 5-HT2A receptor in the CHO-K1 host background. This design enables Gq-11 expressed in CHO-K1 cells to mobilize intracellular calcium changes when 5-HT2A receptors are activated by ligands.
Cell lines were maintained in Ham's F12 media plus 10% FBS in the presence of 100 ug/ml hygromycin for CHO-K1/Ga15 or 400 ug/ml G418 for CHO-K1/5-HT2A unless indicated otherwise for specific assays. Cell maintenance was carried out as recommended by the cell supplier. Briefly, vials with cells were removed from the liquid nitrogen and thawed quickly in 37° C. water bath. […]
Increase in cytosolic calcium concentration by 5-HT2A activation. Changes in intracellular calcium concentration due to the treatment with assay compounds was measured using Fluo-8 dye (Abcam, #ab112129) according to the manufacturer's instructions. […] Fluorescence (ex 490 nm/em 525 nm) obtained after the addition of molecules was expressed relative to values obtained before addition of the molecules (relative Fluo-8 fluorescence=Fmax/F0, where Fmax=maximum fluorescence and F0=baseline fluorescence). Fluorescence intensities were measured using a Spectramax ID3 plate reader (www.moleculardevices.com). Relative fluorescence (RFU) was plotted with respected to time (seconds) illustrating time-dependent calcium flux. […] The Example compound (Ill) was then evaluated.
On the technique in general: Calcium flux is commonly read through the fluorescence of an indicator in the cells.

A word on the EC50: it is the concentration giving half of the maximal effect.

Sequence of 5-HT2A receptor (P28223 whole entry): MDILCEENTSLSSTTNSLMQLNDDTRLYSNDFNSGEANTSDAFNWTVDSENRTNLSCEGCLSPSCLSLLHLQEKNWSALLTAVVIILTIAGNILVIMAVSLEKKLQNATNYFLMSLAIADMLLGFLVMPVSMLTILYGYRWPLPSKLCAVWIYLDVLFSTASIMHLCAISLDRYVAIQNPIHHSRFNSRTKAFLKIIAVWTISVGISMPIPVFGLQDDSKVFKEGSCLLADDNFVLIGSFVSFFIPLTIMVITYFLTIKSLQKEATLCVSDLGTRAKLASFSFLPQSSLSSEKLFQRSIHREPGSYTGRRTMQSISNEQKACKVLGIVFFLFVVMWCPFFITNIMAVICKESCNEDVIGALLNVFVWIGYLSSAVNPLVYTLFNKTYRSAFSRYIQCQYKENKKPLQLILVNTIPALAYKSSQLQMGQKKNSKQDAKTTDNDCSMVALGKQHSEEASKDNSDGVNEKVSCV

For `NCCc1c[nH]c2cccc(O[C@@H]3OC(CO)[C@@H](O)C(O)C3O)c12` (stereo partly drawn) [III, 4-O-β-D-glucopyranosyltryptamine], the “dose dependence of calcium flux response” value in test [1] (+5-HT2A cells, 0.001-100 μM) was “response increased with dosage”. In addition, the “calcium flux response in −5-HT2A cells” value in test [2] was “did not exhibit a response”.
Turning to `NCCc1c[nH]c2cccc(O[C@@H]3OC(CO)[C@H](O)C(O)C3O)c12` (stereo partly drawn) [V, 4-O-β-D-galactopyranosyltryptamine], the “dose dependence of calcium flux response” value in test [1] (+5-HT2A cells, 0.001-100 μM) was “response increased with dosage”. The “time to peak of intracellular calcium flux” value in test [1] (+5-HT2A cells, 0.001-100 μM, relative Fluo-8 fluorescence vs time) is “under 60 seconds”. For the same compound, the “calcium flux response in −5-HT2A cells” value in test [2] was “did not exhibit a response”.
Take `CN(C)CCc1c[nH]c2cccc(O[C@@H]3OC(CO)[C@H](O)C(O)C3O)c12` (stereo partly drawn) [VI, N,N-dimethyl-4-O-β-D-galactopyranosyltryptamine]: the EC50 in test [1] (CHO-K1/5-HT2A (+5-HT2A) cells, four parameter logistic curve fitting, GraphPad Prism, read-out: EC50 of relative Fluo-8 fluorescence (calcium mobilization)) was found to be 3.81 µM.
As for `CN(C)CCc1c[nH]c2cccc(O)c12` [psilocin, reference compound], the “dose dependence of calcium flux response” value in test [1] (+5-HT2A cells, 0.001-100 μM) is on record as “response increased with dosage”. Besides, the “calcium flux response in −5-HT2A cells” value in test [2] was “did not exhibit a response”.

Values taken from US11891360B2, “Glycosylated psilocybin derivatives and methods of using” (Enveric Biosciences Canada Inc., priority 2020, dated 2024).
